Results on 3 molecules are retold here after US12564206B2, “Multi-supplement food-additive” (THE GOVERNING COUNCIL OF THE UNIVERSITY OF TORONTO, priority 2019, dated 2026).

A short description of data set [1]: L*a*b* colour analysis of salt sprayed with folic acid. It counts as physicochemical. The procedure:
While this example was successful, it was observed that the addition of folic acid by spraying can impact the colour of the salt (i.e. a yellow color is observed), which may impact the acceptance of the salt. Accordingly, the inclusion of the folic acid in the premix was evaluated. […] The two other premix samples contained an iron micronutrient, folic acid, and vitamin B12; in one of these two, all of the micronutrients were in the core of the premix, while in the other, folic acid was separated from the iron micronutrient and vitamin B12 by a layer of TiO2.

A short description of data set [2]: Stability of folic acid and iodine in fortified salt on storage. As to conditions: for micronutrient retained in quadruple fortified salt: 6 months storage at 25, 35 and 45 degrees C, 60-70% RH, all cases. The procedure:
However, for comparative study, a solution containing folic acid, iodine and vitamin B12 (spray solution 2 in Table 1) was also used. The solutions (2.5 mL) were sprayed on salt (1 kg) inside a ribbon blender and thoroughly mixed for 20 minutes. The salt samples were dried overnight. The dried salt was returned to the ribbon blender and mixed with premix samples for 2 minutes. Iron premix (i.e. particles containing iron without any B12 or other fortificants) and three of the four iron-B12 premixes were used (adding B12 to TiO2 was not further tested). The target concentrations of the fortificants were 1000 microgram/gram iron, 50 microgram/gram iodine, 25 microgram/gram folic acid and 0.25 microgram/gram vitamin B12.
The fortified salts were divided by solid sample splitter glassware into three portions. Each portion was stored at ambient conditions (25 degrees C.), 35 degrees C. and 60-70% RH, and 45 degrees C. and 60-70% RH. The stability of folic acid and iodine in the salt was monitored over a period of six months.
(§1) Folic Acid Analysis: For the spray solution, samples were diluted with 0.1 M Na2CO3 at ratio 1:1000 v/v and the absorbance of the resulting solution was read at 285 nm. For the salt samples, 5 g aliquots were dissolved in 0.1 M Na2CO3 (10 mL) in a falcon tube. The solution was mixed on a vortex mixer for 2 minutes and filtered with a 0.45 μm syringe filter. The absorbance of the filtrate was immediately read at 285 nm.
(§2) Iodine Analysis: Method 33.149, described by the Association of Official Analytical Chemists (AOAC), was used for iodine quantification in salt and spray solutions (Association of Official Analytical Chemists, 1984). In this method, iodate is reduced to iodine and titrated with sodium thiosulfate using a starch indicator.

A short description of data set [3]: Stability of spray solutions on storage. As to conditions: for retained in spray solution: after 2 months of storage. Here is the method:
Formulation and Storage of Spray Solution: Seven sets of spray solutions were formulated, containing folic acid, vitamin B12, iodine, sodium ascorbate, sodium citrate and/or sodium carbonate, as described in Table 1. The stability of the solutions was monitored for 2 months at 25, 35, and 45 degrees C.
as §1, §2
Vitamin B12 Analysis: The iron-B12 premix was pulverized with a mortar and pestle. The pulverized premix (5 g) was weighed into 50 mL falcon tube, and 10 mL of RO water was added and mixed with a vortex mixer for 2 minutes. This was centrifuged for 2 minutes. The supernatant was filtered with a 0.45 micron filter. Vitamin B12 in the filtrate was quantified using UHPLC-MS.

A short description of data set [4]: Earlier double fortified salt, storage stability. It counts as physicochemical. The following applies: 5 month period, ambient conditions. From the text:
Applicant has previously attempted to develop folic acid and iodine spray solutions to investigate the stability of triple fortified salt containing iodine, folic acid and microencapsulated ferrous fumarate.

For data set [5] the following is noted: cited from earlier work.
The conditions of data set [6]: 30 min, 2 mg/mL.
Procedure: The effect of boiling on the stability of folic acid and vitamin B12 was assessed, in order to mimic food preparation. A known amount of folic acid (0.5 g) was weighed into 250 ml of boiling water. Boiling was continued for 30 minutes. At 1, 5, 10, 15, 20, 25, and 30 minutes, the solution was made up to 250 ml, and then 1 ml of the solution was measured out into a centrifuge vial. The same procedure was followed for B12.
Data set [7] can be described thus: Accelerated kinetic study of folic acid and iodine degradation in spray solution. It counts as physicochemical. The following applies: for degradation constant in spray solution: first order; for activation energy for degradation in the solution: Arrhenius plot. Here is the method: An accelerated kinetic study was conducted to evaluate the stability of the micronutrients in the premixes and solution. The stability of folic acid and iodine in the spray solution was evaluated, and the stability of B12 in the various premixes was evaluated. The solution and premix were stored at 50, 60, 70 and 80 degrees C. for 7 days. For the solution, samples (250 mL) were stored in 400 mL Fisherbrand Glass Bottles. About 1 mL of the samples were collected from the bottles at days 1, 3, 5 and 7, and stored at −20 degrees C. before analysis. For the premix, 1 g was weighed into aluminium weighing dishes. At days 1, 3, 5 and 7, samples were pulverized in a mortar and pestle. Vitamin B12 was extracted with 0.1 M Na2CO3. The crude extract was filtered (0.45 um) and stored at −20 degrees C. before analysis.

The nature of data set [8]: Stability of vitamin B12 in iron-B12 premix on storage. It counts as physicochemical. As to conditions: room temperature, six months; premix made by three approaches (core, spray, HPMC). From the text: Production of Iron-B12 Premix: Given the instability of vitamin B12 in the spray solutions (as described below with respect to FIG. 4), vitamin B12 was removed from the spray solutions and incorporated into separate particles with the iron micronutrient, as a multi-supplement food-additive, described above (also referred to herein as an ‘iron-B12 premix’). For the iron-B12 premix, 25% TiO2 was used for color masking, and 5% HPMC and 5% soy stearin as the encapsulating coating. […] The stability of vitamin B12 in each iron-B12 premix was evaluated for six months.
This was centrifuged for 2 minutes.

Setting [9] is: 12.5 microgram/gram folic acid in salt.
Setting [10] is: 25 microgram/gram folic acid in salt.

Where two headings read alike, the source gives them in different places.

In the case of `Nc1nc2ncc(CNc3ccc(C(=O)N[C@@H](CCC(=O)O)C(=O)O)cc3)nc2c(=O)[nH]1` [folic acid], in data set [1] (setting [9]), the “L* of salt” value is recorded as 95.43, the “a* of salt” value is recorded as −1.53 and the “b* of salt” value is listed as 8.44. Besides, in data set [1] (setting [10]), the “L* of salt” value worked out at 94.27, the “a* of salt” value is −2.92 and the “b* of salt” value was determined as 13.50. Also, the “micronutrient retained in quadruple fortified salt” value in data set [2] is 74-97%. Moreover, the “improvement of folic acid stability with vitamin B12 in core vs other parts of the premix” value in data set [2] (QFS, six months, all temperatures) is given as 11-15%. Also, in data set [3], the stability in solution result is on record as “very stable” and the “retained in spray solution” value was around 80%. For the same molecule, in data set [4], the “micronutrient retained in double fortified salt” value is on record as 100%. For the same molecule, the solubility in water entry in data set [5] is on record as “sparingly soluble”. Moreover, the retained after boiling entry in data set [6] is “About 93%”. For the same molecule, the “degradation constant in spray solution” value in data set [7] (60 degrees C) amounted to 0.0349 day⁻¹. Also, the “degradation constant in spray solution” value in data set [7] (70 degrees C) was 0.0411 day⁻¹. Moreover, the “degradation constant in spray solution” value in data set [7] (80 degrees C) is 0.0531 day⁻¹. Further, the “activation energy for degradation in the solution” value in data set [7] was determined as 4.924 kcal/mol.
Consider `II` [iodine, potassium iodate], for which the “micronutrient retained in quadruple fortified salt” value in data set [2] was 85-100%. For the same molecule, the “improvement of iodine stability with vitamin B12 in core vs other parts of the premix” value in data set [2] (QFS, 45 degrees C, six months) is 6-15%. The “retained in spray solution” value in data set [3] is reported as “about 90%”. The stability in solution entry in data set [3] (the spray solutions (FIG. 4)) is recorded as “very stable”. The “micronutrient retained in double fortified salt” value in data set [4] was 100%. Also, the “degradation constant in spray solution” value is 0.0337 day⁻¹ in data set [7] (60 degrees C), 0.0432 day⁻¹ in data set [7] (70 degrees C) and 0.0568 day⁻¹ in data set [7] (80 degrees C). Further, in data set [7], the “activation energy for degradation in the solution” value is 6.092 kcal/mol.
Consider vitamin B12, for which, in data set [8], the “B12 retained in iron-B12 premix” value is recorded as “over 97%”. In data set [3], the stability in solution entry is on record as “very stable”. Besides, the “vitamin B12 lost in spray solution” value in data set [3] (spray solution at lower pH (8), 2 months storage) is recorded as above 50%; in data set [3] (spray solution pH 9, 2 months storage at 45 degrees C and 70% RH) it was around 100%. Also, in data set [5], the solubility in water entry is listed as “very soluble”.
